Results published in patent US8846947B2, “Benzimidazoles and related analogs as sirtuin modulators” (GlaxoSmithKline LLC, priority 2008, dated 2014).
Where a name gives a salt, the structure may show the parent alone. Read-outs that look alike come from different tables or passages of the source.

Target: T1, SIRT1 (Homo sapiens, UniProt Q96EB6)
T1 sequence (Q96EB6 1-747): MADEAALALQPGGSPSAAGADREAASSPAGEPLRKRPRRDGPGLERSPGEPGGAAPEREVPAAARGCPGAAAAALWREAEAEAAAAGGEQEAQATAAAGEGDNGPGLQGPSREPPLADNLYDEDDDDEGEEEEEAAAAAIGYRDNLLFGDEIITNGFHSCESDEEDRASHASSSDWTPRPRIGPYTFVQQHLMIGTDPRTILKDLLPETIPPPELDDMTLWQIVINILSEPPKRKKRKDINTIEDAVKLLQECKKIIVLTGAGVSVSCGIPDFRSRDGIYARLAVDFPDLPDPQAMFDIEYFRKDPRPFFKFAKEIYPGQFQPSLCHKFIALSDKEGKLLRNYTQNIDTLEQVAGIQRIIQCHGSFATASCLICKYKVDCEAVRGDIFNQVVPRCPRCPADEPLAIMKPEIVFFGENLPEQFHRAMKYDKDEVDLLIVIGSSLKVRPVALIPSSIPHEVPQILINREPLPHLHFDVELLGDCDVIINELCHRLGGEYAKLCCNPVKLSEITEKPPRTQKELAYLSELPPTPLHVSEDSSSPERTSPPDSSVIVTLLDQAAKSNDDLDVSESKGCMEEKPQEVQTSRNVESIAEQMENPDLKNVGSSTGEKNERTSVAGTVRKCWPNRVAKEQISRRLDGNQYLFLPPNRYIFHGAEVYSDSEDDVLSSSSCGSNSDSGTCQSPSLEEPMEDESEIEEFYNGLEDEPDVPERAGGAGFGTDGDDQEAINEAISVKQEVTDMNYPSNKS
Assay: Mass spectrometry based SIRT1 deacetylase activation assay (acetylated p53-derived peptide substrate)
Format: biochemical

[1] = 0.5 μM peptide substrate, 120 μM βNAD+, 10 nM SIRT1, 25 minutes at 25° C.
[2] = 0.5 μM peptide substrate, 120 μM βNAD+, 10 nM SIRT1, 25 min at 25° C.
[3] = 0.5 μM peptide substrate, 120 μM βNAD+, 10 nM SIRT1, 25 min at 25° C., read-out: EC1.5

| EC1.5 [1] | Fold Act. (percent maximum fold activation) [1] | Structure (SMILES) | further results |
| --- | --- | --- | --- |
| B (EC1.5 1-25 uM) | A (Fold activation >200%) | CS(=O)(=O)c1ccc(F)cc1-c1nc2c(C(=O)Nc3nccs3)cccc2[nH]1 [Compound 600] | – |
| B (EC1.5 1-25 uM) | A (Fold activation >200%) | O=C(Nc1ccccc1OCC(O)CO)c1cccc2[nH]c(-c3cc(F)ccc3C(F)(F)F)nc12 (centres unmarked) [Compound 730] | – |
| A (EC1.5<1.0 uM) | A (Fold activation >200%) | O=C(Nc1cccnc1)c1cc(N2CCOCC2)cc2[nH]c(-c3cc(F)ccc3C(F)F)nc12 [Compound 767] | – |
| – | – | Cc1nc(NC(=O)c2cccc3[nH]c(-c4ccccc4C(F)(F)F)nc23)sc1C [Compound 344] | EC1.5: A (EC1.5<1.0 uM); Fold Act. (percent maximum fold activation): A (Fold activation >200%) |
| A (EC1.5<1.0 uM) | A (Fold activation >200%) | O=C(Nc1ccccn1)c1cccc2[nH]c(-c3ccc(N4CC[C@H](F)C4)cc3C(F)F)nc12 [Compound 733] | – |
| – | – | O=C(Nc1cccnc1)c1cccc2[nH]c(-c3ccc(N4CCOCC4)cc3C(F)(F)F)nc12 [Compound 430, 2-(4-morpholino-2-(trifluoromethyl)phenyl)-N-(pyridin-3-yl)-1H-benzo[d]imidazole-4-carboxamide] | Fold Act. (percent maximum fold activation) [2]: A (Fold activation >200%); EC1.5 [3]: < 1000 nM |
| – | – | Cc1nnc(NC(=O)c2cccc3[nH]c(-c4cccc(C(F)(F)F)c4)nc23)s1 [Compound 232] | EC1.5: B (EC1.5 1-25 uM); Fold Act. (percent maximum fold activation): A (Fold activation >200%) |
| – | – | O=C(Nc1nccs1)c1cccc2[nH]c(-c3ccco3)nc12 [Compound 249] | EC1.5: B (EC1.5 1-25 uM); Fold Act. (percent maximum fold activation): A (Fold activation >200%) |
| – | – | Cc1cnc(NC(=O)c2cccc3[nH]c(-c4ccc(OC5CCNCC5)cc4)nc23)s1 [Compound 537] | Fold Act. (percent maximum fold activation) [2]: A (Fold activation >200%); EC1.5 [3]: < 1000 nM |
| A (EC1.5<1.0 uM) | A (Fold activation >200%) | O=C(Nc1cccc(OC[C@@H](O)CO)c1)c1cccc2[nH]c(-c3ccc(Cl)cc3C(F)F)nc12 [Compound 699] | – |
| – | – | CS(=O)(=O)c1cccc(-c2nc3c(C(=O)Nc4ccccn4)cccc3[nH]2)c1 [Compound 403] | Fold Act. (percent maximum fold activation) [2]: A (Fold activation >200%); EC1.5 [3]: 1000 to 25000 nM |
| A (EC1.5<1.0 uM) | A (Fold activation >200%) | Cc1cnc(NC(=O)c2cncc3[nH]c(-c4ccc(F)cc4C(F)(F)F)nc23)s1 [Compound 697] | – |
| C (EC1.5 >25 uM) | B (Fold Activation <200%) | FC(F)(F)c1cc(Cl)ccc1-c1nc2c(NCc3cccnc3)cccc2[nH]1 [Compound 669] | – |
| A (EC1.5<1.0 uM) | A (Fold activation >200%) | O=C(Nc1cccc(CN2CCOCC2)n1)c1cccc2[nH]c(-c3cc(F)ccc3F)nc12 [Compound 855] | – |
| A (EC1.5<1.0 uM) | A (Fold activation >200%) | O=C(Nc1ccccc1)c1cccc2[nH]c(-c3cc(F)ccc3C(F)(F)F)nc12 [Compound 756] | – |
| – | – | Cc1cc(NC(=O)c2cccc3[nH]c(-c4cccc(C(F)(F)F)c4)nc23)no1 [Compound 299] | EC1.5: B (EC1.5 1-25 uM); Fold Act. (percent maximum fold activation): A (Fold activation >200%) |
| – | – | O=C(Nc1nccs1)c1cccc2[nH]c(-c3ccc(Cl)cc3C(F)F)nc12 [Compound 562] | Fold Act. (percent maximum fold activation) [2]: A (Fold activation >200%); EC1.5 [3]: < 1000 nM |
| – | – | O=C(Nc1nccs1)c1cccc2[nH]c(-c3ccc(N4CCNCC4)nc3)nc12 [Compound 251, 2-(6-(piperazin-1-yl)pyridin-3-yl)-N-(thiazol-2-yl)-1H-benzo[d]imidazole-4-carboxamide hydrochloride] | EC1.5: A (EC1.5<1.0 uM); Fold Act. (percent maximum fold activation): A (Fold activation >200%) |
| A (EC1.5<1.0 uM) | A (Fold activation >200%) | O=C(Nc1nccs1)c1cncc2[nH]c(-c3ccc(OC[C@H](O)CO)cc3C(F)(F)F)nc12 [Compound 761] | – |
